# In patent US12338219B2, “Antimalarial agents” (Merck Sharp & Dohme LLC, priority 2019, dated 2025):
# System: parasites (ring stage parasites, parasite growth)
# Assay: Parasite LDH growth assay (Parasite Assay), antiparasite potency
# Format: cell-based
# Settings: 72 hours growth, LDH readout
# Protocol: Assessing Antiparasite Potency in a Parasite LDH Growth Assay (Parasite Assay) The parasite stock was maintained at […] in RPMI-Hepes media buffered with sodium bicarbonate and supplemented with […]. […] On the day of assay set up, a blood smear of the parasite culture was Giemsa stained and counted. The parasitemia was adjusted to 0.7% rings and the haematocrit was diluted to 2% in RPMI-Hepes media buffered with sodium bicarbonate and supplemented with 500 heat inactivated human serum and 0.5% albumax. 30 ul of diluted parasites are then added into 10 ul of media+compound in pre-prepared Greiner TC assay plates. Parasite assay plates were placed in gassed humidified boxes in single layer and allowed to incubate at 37° C. for 72 hours. After 72 hours growth, assay plates are sealed with parafilm and frozen flat, in single file at −80° C. overnight. On the following day, assay plates are allowed to thaw at room temperature for 4 hours to which an LDH assay is performed to measure parasite growth.
smiles,measurement,setting,value
COCC[C@H]([C@@H]1C[C@H]1C(=O)NC1CC(C)(C)Oc2ccc(OC(F)(F)F)cc21)N1C(=N)NC(C)(C)CC1=O (stereo partly shown) [Example 126B],EC50,Table 3,8.4 nM
CC1(C)CC(=O)N([C@H](c2cccnc2)[C@@H]2C[C@H]2C(=O)NC2CC(C)(C)Oc3c(Cl)cccc32)C(=N)N1 (stereo partly shown) [Example 121A],EC50,"72 h, Table 3",2.5 nM
"CCC1(CC)CC(=O)N(C(CC(C)OC)[C@@H]2C[C@H]2C(=O)N[C@H]2CC(C)(C)Oc3ccccc32)C(=N)N1 (single isomer, unassigned) [Example 142A]",EC50,Table 4 (unit inferred),1.9 nM
CCC1(CC)CC(=O)N(C[C@@H]2C(C)[C@H]2C(=O)NC2c3ccccc3OC2(C)C)C(=N)N1 (stereo partly shown) [Example 36B],EC50,Table 3,301 nM
CCC1(CC)CC(=O)N([C@H](c2cccnc2)[C@@H]2C[C@H]2C(=O)N[C@@H]2c3ccccc3OC(C)(C)[C@H]2O)C(=N)N1 [Example 11B],EC50,"72 h, Table 3",24 nM
COCC[C@H]([C@@H]1C[C@H]1C(=O)NC1CC2(CCC2)Oc2ccccc21)N1C(=N)NC(C)(C)CC1=O (stereo partly shown) [Example 131B],EC50,Table 3,6.1 nM
COCC[C@H]([C@@H]1C[C@H]1C(=O)N[C@H]1CC(C)(C)Oc2ccc(Cl)cc21)N1C(=N)NC(C)(C)CC1=O [Example 101],EC50,"72 h, Table 3",2.9 nM
COCC[C@H]([C@@H]1C[C@H]1C(=O)NC1CC(C)(C)Oc2c(F)cccc21)N1C(=N)NC(C)(C)CC1=O (stereo partly shown) [Example 111A],EC50,"72 h, Table 3",24 nM
Cc1ccc2c(c1)OC(C)(C)C[C@@H]2NC(=O)[C@@H]1C[C@H]1[C@@H](c1cccnc1)N1C(=N)NC(C)(C)CC1=O [Example 85B],EC50,"72 h, Table 3",0.9 nM
COc1cncc([C@H]([C@@H]2C[C@H]2C(=O)N[C@H]2CC(C)(C)Oc3ccccc32)N2C(=N)NC(C)(C)CC2=O)c1 [Example 40],EC50,"72 h, Table 3",3.1 nM
COCC[C@H]([C@@H]1C[C@H]1C(=O)N[C@@H]1CC(C)(C)Oc2c(C(F)(F)F)ccc(F)c21)N1C(=N)NC(C)(C)CC1=O [Example 114A],EC50,"72 h, Table 3",89 nM
CCC1(CC)CC(=O)N([C@H](c2cccnc2)[C@@H]2C(C)[C@H]2C(=O)N[C@H]2C[C@H](C(F)(F)F)Oc3ccccc32)C(=N)N1 (stereo partly shown) [Example 55A],EC50,"72 h, Table 3",0.8 nM
COc1cncc([C@H]([C@@H]2C[C@H]2C(=O)N[C@@H]2c3ccccc3OC(C)(C)[C@H]2O)N2C(=N)NC(C)(C)CC2=O)c1 [Example 42],EC50,"72 h, Table 3",18.4 nM
CCC1(CC)CC(=O)N(CC2C(C(=O)N[C@H]3CCOc4ccccc43)C2(F)F)C(=N)N1 (stereo partly shown) [Example 15A],EC50,"72 h, Table 3",240 nM
Cc1ccc2c(c1)OC(C)(C)C[C@H]2NC(=O)[C@@H]1C[C@H]1[C@@H](c1cccnc1)N1C(=N)NC(C)(C)CC1=O [Example 85A],EC50,"72 h, Table 3",2.4 nM
"CC(C)C1(C)CC(NC(=O)[C@@H]2C[C@H]2[C@@H](c2cccnc2)N2C(=N)NC(C)(C)CC2=O)c2ccccc2O1 (single isomer, unassigned) [Example 81A]",EC50,Table 3,2.7 nM
CCC1(CC)CC(=O)N(C[C@@H]2C(C)[C@H]2C(=O)N[C@H]2C[C@H](C(F)(F)F)Oc3ccccc32)C(=N)N1 (stereo partly shown) [Example 28B],EC50,Table 3,14 nM
CCC1(CC)CC(=O)N(C[C@@H]2C[C@H]2C(=O)N[C@@H](C)c2ccccc2)C(=N)N1 [Example 3B],EC50,"72 h, Table 3",151 nM
CC1(C)CC(=O)N([C@H](c2cccc(C#N)c2)[C@@H]2C[C@H]2C(=O)N[C@H]2C[C@H](C(F)(F)F)Oc3ccccc32)C(=N)N1 [Example 52],EC50,"72 h, Table 3",1 nM
CC1(C)CC(=O)N([C@H](c2cccnc2)[C@@H]2C[C@H]2C(=O)NC2CC(C)(C)Oc3c(F)cc(F)cc32)C(=N)N1 (stereo partly shown) [Example 122A],EC50,"72 h, Table 3",2.3 nM
"CCC1C[C@H](NC(=O)[C@@H]2C[C@H]2CN2C(=N)NC(C)(C)CC2=O)c2ccccc2O1 (single isomer, unassigned) [Example 133A]",EC50,Table 3,210 nM
CC1(C)CC(=O)N(C[C@@H]2C[C@H]2C(=O)N[C@H]2CC3(CCC3)Oc3ccccc32)C(=N)N1 [Example 135],EC50,"72 h, Table 3",190 nM
CC1(C)CC(=O)N([C@H](c2cccc(C#N)c2)[C@@H]2C[C@H]2C(=O)N[C@@H]2c3ccccc3OC(C)(C)[C@H]2O)C(=N)N1 [Example 51],EC50,"72 h, Table 3",5.3 nM
"CC[C@]1(C)CC(=O)N(C(c2cncc(F)c2)[C@@H]2C[C@H]2C(=O)N[C@@H]2c3ccccc3OC(C)(C)C2(C)O)C(=N)N1 (single isomer, unassigned) [Example 103A]",EC50,Table 3,29 nM
CC1(C)CC(=O)N(C(c2cccc(C#N)c2)[C@@H]2C[C@H]2C(=O)NC2CC(C)(C)Oc3ccc(F)cc32)C(=N)N1 (stereo partly shown) [Example 53B],EC50,Table 3,2.1 nM
COCC[C@H]([C@@H]1C[C@H]1C(=O)N[C@H]1CC(C)(C)Oc2cccc(OC)c21)N1C(=N)NC(C)(C)CC1=O [Example 74B],EC50,"72 h, Table 3",3.1 nM
Cc1ccc2c(c1)OC(C)(C)C[C@@H]2NC(=O)[C@@H]1C[C@H]1CN1C(=N)NC(C)(C)CC1=O [Example 84],EC50,"72 h, Table 3",289 nM
COCC[C@H]([C@@H]1C[C@H]1C(=O)N[C@@H]1CC(C)(C)Oc2ccc(C(F)(F)F)cc21)N1C(=N)NC(C)(C)CC1=O [Example 110A],EC50,"72 h, Table 3",21 nM
CC1(C)CC(=O)N([C@H](c2cccnc2)[C@H]2[C@H](C(=O)N[C@H]3C[C@H](C(F)(F)F)Oc4ccccc43)C2(C)C)C(=N)N1 [Example 43A],EC50,"72 h, Table 3",4 nM
COCC[C@H]([C@@H]1C[C@H]1C(=O)N[C@H]1CC(C)(C)Oc2cccc(Cl)c21)N1C(=N)NC(C)(C)CC1=O [Example 116A],EC50,"72 h, Table 3",0.8 nM
CC[C@]1(C)CC(=O)N([C@H](CCOC)[C@@H]2C[C@H]2C(=O)N[C@@H]2c3ccccc3OC(C)(C)[C@H]2O)C(=N)N1 [Example 61],EC50,"72 h, Table 3",6.9 nM
CC1(C)CC(=O)N([C@H](c2ccc(C#N)cc2)[C@@H]2C[C@H]2C(=O)N[C@H]2C[C@H](C(F)(F)F)Oc3ccccc32)C(=N)N1 [Example 47B],EC50,"72 h, Table 3",0.9 nM
CCC1(CC)CC(=O)N(C[C@H]2C[C@@H]2C(=O)N[C@@H](C)c2ccccc2)C(=N)N1 [Example 3A],EC50,"72 h, Table 3",234 nM
CC1(C)CC(=O)N([C@@H](c2ccc(C#N)cc2)[C@@H]2C[C@H]2C(=O)N[C@H]2C[C@H](C(F)(F)F)Oc3ccccc32)C(=N)N1 [Example 47A],EC50,"72 h, Table 3",155 nM
CCC1(CC)CC(=O)N(C[C@@H]2[C@@H](C(=O)N[C@@H]3c4ccccc4OC(C)(C)[C@H]3O)C2(F)F)C(=N)N1 [Example 18B],EC50,"72 h, Table 3",180 nM
CCC1(CC)CC(=O)N(C[C@@H]2C[C@H]2C(=O)N[C@H]2CCOc3ccccc32)C(=N)N1 [Example 4B],EC50,"72 h, Table 3",26 nM
CC1(C)CC(=O)N([C@H](c2cccnc2)[C@@H]2C[C@H]2C(=O)N[C@@H]2CC(C)(C)Oc3cc(Cl)ccc32)C(=N)N1 [Example 91B],EC50,"72 h, Table 3",2.7 nM
CCC1(C)C[C@H](NC(=O)[C@@H]2C[C@H]2CN2C(=N)NC(C)(C)CC2=O)c2ccccc2O1 (stereo partly shown) [Example 78],EC50,"72 h, Table 3",300 nM
CC1(C)CC(=O)N([C@H](c2cccnc2)[C@@H]2C[C@H]2C(=O)NC2CC(C)(C)Oc3cc(F)ccc32)C(=N)N1 (stereo partly shown) [Example 77B],EC50,Table 3,2.3 nM
CCC1(CC)CC(=O)N([C@H](CCOC)[C@@H]2C[C@H]2C(=O)N[C@H]2CC(C)(C)Oc3ccccc32)C(=N)N1 [Example 1A],EC50,"72 h, Table 3",1 nM
CC1(C)CC(=O)N([C@@H](c2ccc(C#N)cc2)[C@@H]2C[C@H]2C(=O)N[C@H]2CC(C)(C)Oc3ccccc32)C(=N)N1 [Example 45B],EC50,"72 h, Table 3",220 nM
"CCC1(CC)CC(=O)N([C@H](CCOC)[C@@H]2C[C@H]2C(=O)NC2CC(C)(C)Oc3cc(Cl)ccc32)C(=N)N1 (single isomer, unassigned) [Example 147B]",EC50,Table 4 (unit inferred),8.2 nM
"CC1(C)CC(=O)N([C@H](c2cccnc2)[C@@H]2C[C@H]2C(=O)NC2CC(C)(C)Oc3ccc(C(F)(F)F)cc32)C(=N)N1 (single isomer, unassigned) [Example 109A]",EC50,Table 3,2.3 nM
